Measurements from ChEMBL document CHEMBL1121671, “Synthesis of analogues of acetylmethadol and methadol as potential narcotic antagonists” (J Med Chem, 1981).
Activity calls are given as the source filed them. No cut-off for these calls is given here.

Assays:
Opioid receptor [1] = target: T1, Opioid receptor (Rattus norvegicus, UniProt P33533+P34975+P33535); assay type: cell membranes, Brain, Membrane
Opioid receptor [2] = target: T1, Opioid receptor; test: Compound was evaluated for the inhibition of [3H]- naloxone binding to Opioid receptors in rat brain membrane in the presence of Na; assay type: cell membranes
Mus musculus [3] = test: Compound was evaluated for narcotic analgesia activity in mice by mouse writhing assay at 30 mg/kg; Inactive; assay type: functional, organism-based; design: dose 30 mg/kg
Mus musculus [4] = test: Compound was evaluated for narcotic analgesia activity in mice by the tail flick test; Weak up to 30 and 38% analgesia at 30 mg/kg; assay type: functional, organism-based; design: dose 30 mg/kg
Mus musculus [5] = test: Compound was evaluated for antagonism of tail-flick analgesia induced by 6.5 mg/kg of morphine sulfate at 10 mg/kg; Inactive; assay type: functional, organism-based
Mus musculus [6] = test: Compound was evaluated for antagonism of tail-flick analgesia induced by 6.5 mg/kg of morphine sulfate at 0.3 mg/kg; assay type: functional
Mus musculus [7] = test: Compound was evaluated for antagonism of tail-flick analgesia induced by 6.5 mg/kg of morphine sulfate at 1 mg/kg; assay type: functional
Mus musculus [8] = species on record: Mus musculus; test: Compound was evaluated for narcotic analgesia activity in mice by hot plate test; assay type: functional
Mus musculus [9] = species on record: Mus musculus; test: Compound was evaluated for narcotic analgesia activity in mice by mouse writhing assay; assay type: functional
Mus musculus [10] = species on record: Mus musculus; test: Compound was evaluated for narcotic analgesia activity in mice by the tail flick test; assay type: functional
Opioid receptor [11] = target: T1, Opioid receptor; test: Compound was evaluated for the inhibition of [3H]- naloxone Opioid receptors binding using rat brain membrane in the absence of Na
Opioid receptor [12] = target: T1, Opioid receptor; test: Compound was evaluated for the inhibition of [3H]- naloxone Opioid receptors binding using rat brain membrane in the presence of 100 mM Na

Row | SMILES | Ki (Opioid receptor [1]) | Ki (Opioid receptor [2]) | ED50 (Mus musculus [8]) | ED50 (Mus musculus [9]) | ED50 (Mus musculus [10]) | also measured
1 | C=CCN(C)C(C)CC(c1ccccc1)(c1ccccc1)C(O)CC (centres undefined) | 150 nM | 2 µM |  |  |  | 
2 | CCC(OC(C)=O)C(CC(C)N(C)CC1CC1)(c1ccccc1)c1ccccc1 (centres undefined) | 2000 nM | 30 µM |  |  |  | ED50 (Mus musculus [3]): inactive; ED50 (Mus musculus [4]): Weak activity; ED50 (Mus musculus [5]): inactive
3 | CCC(O)C(CC(C)N(C)CC1CC1)(c1ccccc1)c1ccccc1 (centres undefined) | 600 nM | 5 µM |  |  |  | 
4 | C=CCN(C)C(C)CC(c1ccccc1)(c1ccccc1)C(CC)OC(C)=O (centres undefined) |  |  | 10 mg/kg | 2.5 mg/kg | 3.1 mg/kg | ED80 (Mus musculus [6]): 56.9 mg/kg; ED80 (Mus musculus [7]): 61.4 mg/kg; Ki (Opioid receptor [11]): 900 nM; Ki (Opioid receptor [12]): 10 µM
5 | CN1CC[C@]23c4c5ccc(O)c4O[C@H]2[C@@H](O)C=C[C@H]3[C@H]1C5.CN1CC[C@]23c4c5ccc(O)c4O[C@H]2[C@@H](O)C=C[C@H]3[C@H]1C5.O=S(=O)(O)O |  |  | 3.05 mg/kg | 0.82 mg/kg | 3.3 mg/kg | 
